Three sequences from patent publication US9816991B2, “Diagnostic peptides for lyme disease” (Biopeptides Corp., priority 2012, dated 2017) can be followed below.

This test relates to human IgG+IgM serum antibodies. Description: OppA2 peptide ELISA. It counts as binding. The conditions noted are these: for binding of antibodies present in RPR+ serum: 26 RPR+ sera. As for the experimental part:
96-well plates (Nunc Maxisorp) were coated with 10 μg/mL peptide, diluted in 0.1M carbonate-bicarbonate buffer, pH 9.4 (50 μL per well), for 1 hour at room temperature. Blocking buffer 1% bovine serum albumin (BSA) in PBS was added to the wells (250 μL/well) and incubated overnight at 4° C. Wells were washed three times with PBS containing 0.05% Tween 20 (PBS-T) and incubated for 2 hours at room temperature with human samples diluted 1:100 in PBS-1% BSA. Each plate included samples from patients and healthy donors, and all samples were assayed in triplicate. After washing, wells were incubated for 1 hour at RT with a 1:15,000 dilution of HRP-conjugated secondary antibody against human IgG+IgM. Reactions were developed for 30 minutes with 3,3′,5,5′-tetramethylbenzidine (TMB) in the dark at room temperature and the reaction was stopped by the addition of 2N H2SO4. Optical densities were determined at 450 nm and 570 nm wavelengths using a SpectraMax Plus plate reader (Molecular Devices). The cutoff for seropositivity was defined as the mean optical density (OD) of the healthy control samples plus two standard deviations (SD).
OppA2 peptides react specifically with antibodies from Lyme disease patients. The nine peptides were further screened by ELISA using serum or plasma obtained from 104 patients with physician-diagnosed Lyme disease. All patients presented with one or more EM. Control sera was obtained from 45 healthy donors residing in a region of the United States non-endemic for LD, New Mexico. All peptides were incubated with serum in triplicate, and results were validated in two independent experiments. For each peptide, the threshold value for immunoreactivity was defined as the mean optical density (OD) value plus two standard deviations (SD) of results obtained using healthy donor sera. […] OppA2 (191-225) and OppA2 (381-400) were detected by only 2.2% and 6.7%, respectively, of the healthy donor samples.
(ELISA stands for enzyme-linked immunosorbent assay.)

[1] abbreviates: Control sera, Healthy blood donors.
Setting [2] is: Lyme Disease sera, Blood culture negative (localized).
The mark [3] stands for this setting: Lyme Disease sera, Blood culture positive (disseminated).
Setting [4] is: Lyme Disease sera, EM positive (1st visit).
The mark [5] stands for this setting: Lyme Disease sera, Elisa Positive.

Turning to “SDYYSSAVNAIYFYAFNTHIKPLDN (listed as Borrelia sp.) [OppA (276-300)]”, the “binding of antibodies present in RPR+ serum” value (in words) was “did not bind”. Further, the “Antibody positivity, % positive” value by setting is: under setting [1], 4.4%; (Control sera, RA) 0%; (Control sera, Syphilis (RPR+)) 0%; under setting [2], 0%; under setting [3], 0%; under setting [4], “(36.6) %”. Also, the “Antibody positivity, % positive” value was 36.6% (Lyme Disease sera, EM positive (1st visit), listed as OppA2 (276-300)); “(22.9) %” under setting [5]; “(56.5) %” (Lyme Disease sera, Wisconsin). The “Antibody positivity, N° positive/Total” value under setting [1] is given as 2/45; the “Antibody positivity, N° positive/Total” value (Control sera, RA) is given as 0/30; the “Antibody positivity, N° positive/Total” value (Control sera, Syphilis (RPR+)) is recorded as 0/26; the “Antibody positivity, N° positive/Total” value under setting [2] is 0/13; the “Antibody positivity, N° positive/Total” value under setting [3] was 0/10; the “Antibody positivity, N° positive/Total” value under setting [4] is recorded as 34/104. In addition, the “Antibody positivity, N° positive/Total” value reads like this: under setting [5], 8/35; (Lyme Disease sera, Wisconsin) 26/46.

Consider “IYFYSFNTHIKPLDNVKIRKALTLA (listed as Borrelia sp.) [OppA (286-310)]”, for which the “binding of antibodies present in RPR+ serum” value (in words) is on record as “did not bind”. Moreover, the “Antibody positivity, % positive” value by setting is: under setting [1], 4.4%; (Control sera, RA) 0%; (Control sera, Syphilis (RPR+)) 0%; under setting [2], 0%; under setting [3], 0%; under setting [4], “(43.6) %”. Besides, the “Antibody positivity, % positive” value reads like this: (Lyme Disease sera, EM positive (1st visit), listed as OppA2 (286-310)) 43.6%; under setting [5], “(22.9) %”; (Lyme Disease sera, Wisconsin) “(78.3) %”. Besides, the “Antibody positivity, N° positive/Total” value under setting [1] is 2/45; the “Antibody positivity, N° positive/Total” value (Control sera, RA) is on record as 0/30; the “Antibody positivity, N° positive/Total” value (Control sera, Syphilis (RPR+)) was 0/26; the “Antibody positivity, N° positive/Total” value under setting [2] is 0/13; the “Antibody positivity, N° positive/Total” value under setting [3] was 0/10; the “Antibody positivity, N° positive/Total” value under setting [4] is on record as 44/104. Moreover, the “Antibody positivity, N° positive/Total” value was 8/35 under setting [5] and 36/46 (Lyme Disease sera, Wisconsin).

With “APIYIYGNSYLFRND (listed as Borrelia burgdorferi) [OppA2 (495-505)]”, the “reactivity of Lyme disease patient sera compared with sera from healthy donors” value (in words) is “comparable to that of sera from healthy donors”.
